# How the values were obtained:
# Assay type in all cases: in vivo
# weeds = test: Activity assay of compositions: soil sealing treatment (S), fresh weight inhibition and combined effect (Gowing method); conditions: 21 d
# Description: The required active ingredient B was purchased from a reagent company or a technical material manufacturer or synthesized by a conventional method. The technical materials were all dissolved with acetone solvents and diluted with aqueous solution of 0.1% Tween-80 emulsifier, which should be used immediately after dilution.
# • Weeds were cultivated in a controllable sunlight greenhouse at 20 to 30° C., in natural light, and with relative humidity of 57% to 72%. […] The test soil was quantitatively filled to ¾ of the pot, and then watered from the bottom of the pot to completely wet the soil to saturation. The test weed seeds were accelerated to just germinate, and then evenly and quantitatively broadcasted on the soil surface, covered with 0.5-1 cm soil according to the sizes of the seeds, and ready for use 72 hours after sowing.
# Each treatment was repeated 4 times. Four pots with 20 weed seeds sowed per pot were treated each time.
# The well-sowed test materials were evenly placed on a platform with an area of 0.5 m^2, and foliage spraying was carried out by the 3WP-2000-type walking spray tower at a dosage of 450 kg/ha and a spray pressure of 0.3 MPa. After all the solution was sprayed, the air valve was closed. And 30 seconds later, the door of the spray tower was opened, and the nutritional bowl was taken out. Next, the air valve was opened, and the spray tube was cleaned by spraying 50 ml of water.
# A method for investigating absolute numbers was employed. Whole seedlings of survival weeds were cut off along the soil surface with a blade, and the fresh weight of the weeds was weighed using an analytical balance. For dead weeds, the fresh weight thereof was zero.
# The investigation was performed 21 days after the treatment for once in total.
# The theoretical fresh weight inhibition rate of a mixed combination of each treatment was calculated by the Gowing method (E0=X+Y−X*Y/100). Then compared with the measured inhibition rate (E), the type of the combined effect of the combination of the two on weeds was evaluated, which was a synergistic effect when E−E0>10%; an antagonistic effect when E−E0<−10%; an additional effect when −10%≤E−E0≤10%. An optimal ratio was determined according to factors such as the actual control effects, characteristics of herbicides, balance of the formulation, etc. In the formula, X represents the fresh weight inhibition rate of the active ingredient A in a dosage of P; Y represents the fresh weight inhibition rate of the active ingredient B in a dosage of Q. The statistical results are shown in Table 4.
# [1] = tested on: monocotyledonous and dicotyledonous weeds; test: Pre-emergence test experiment (weeds); set-up: key: 9: completely dead; 8: growth control rate is greater than or equal to 90% and less than 100%; 7: growth control rate is greater than or equal to 80% and less than 90%; 6: growth control rate is greater than or equal to 70% and less than 80%; growth control rate is greater than or equal to 50% and less than 70%; 4: growth control rate is greater than or equal to 30% and less than 50%; growth control rate is greater than or equal to 20% and less than 30%; growth control rate is greater than or equal to 10% and less than 20%; growth control rate is less than 10%; 0: no effect; conditions: 30 g a.i./ha
# major crops = test: Pre-emergence test experiment (crops); set-up: key: 9: completely dead; 8: growth control rate is greater than or equal to 90% and less than 100%; 7: growth control rate is greater than or equal to 80% and less than 90%; 6: growth control rate is greater than or equal to 70% and less than 80%; growth control rate is greater than or equal to 50% and less than 70%; 4: growth control rate is greater than or equal to 30% and less than 50%; growth control rate is greater than or equal to 20% and less than 30%; growth control rate is greater than or equal to 10% and less than 20%; growth control rate is less than 10%; 0: no effect; conditions: 30 g a.i./ha
# [2] = Lolium multiflorum, B 75 g a.i./ha
# [3] = Lolium multiflorum, B 150 g a.i./ha
# [4] = Eclipta prostrata, B 75 g a.i./ha
structure (smiles),measurement,setting,value
CC1(C)CON(Cc2ccc(Cl)cc2Cl)C1=O [Bixlozone],Control effect of B applied alone in a corresponding dose (%),weeds; [2],50.2%
same,Control effect of B applied alone in a corresponding dose (%),weeds; [3],70.0%
CCC[S@@+]([O-])c1c(C(F)(F)F)ccc(C(=O)Nc2nnc(C)o2)c1F,Control effect of B applied alone in a corresponding dose (%),"weeds; Ammannia arenaria, B 15 g a.i./ha",26.1%
same,Control effect of B applied alone in a corresponding dose (%),"weeds; Ammannia arenaria, B 30 g a.i./ha",43.8%
C#CCN(C)c1c(C#N)cnn1-c1nn2c(c1Cl)CCCC2 [Pyraclonil],Control effect of B applied alone in a corresponding dose (%),"weeds; Eclipta prostrata, B 37.5 g a.i./ha",47.0%
same,Control effect of B applied alone in a corresponding dose (%),weeds; [4],65.8%
CC1=C(c2ccccc2)C(=O)N(C(C)(C)c2cc(Cl)cc(Cl)c2)CO1 [Oxaziclomefone],Control effect of B applied alone in a corresponding dose (%),"weeds; Eclipta prostrata, B 7.5 g a.i./ha",38.9%
same,Control effect of B applied alone in a corresponding dose (%),"weeds; Eclipta prostrata, B 15 g a.i./ha",56.8%
CCCOCCN(C(=O)CCl)c1c(CC)cccc1CC [Pretilachlor],Control effect of B applied alone in a corresponding dose (%),weeds; [4],38.4%
same,Control effect of B applied alone in a corresponding dose (%),"weeds; Eclipta prostrata, B 150 g a.i./ha",68.3%
C[C@@H](Oc1nc(F)c(Cl)c(N)c1Cl)C(=O)OCC1CCCO1 (stereo partly drawn),Control effect of B applied alone in a corresponding dose (%),"weeds; Silene conoidea, B 75 g a.i./ha",48.0%
same,Control effect of B applied alone in a corresponding dose (%),"weeds; Silene conoidea, B 150 g a.i./ha",54.2%
CC(C)N(C(=O)COc1nnc(C(F)(F)F)s1)c1ccc(F)cc1 [Flufenacet],Control effect of B applied alone in a corresponding dose (%),"weeds; Lolium multiflorum, B 30 g a.i./ha",46.2%
same,Control effect of B applied alone in a corresponding dose (%),"weeds; Lolium multiflorum, B 60 g a.i./ha",68.5%
CC(C)=C1OC(=O)N(c2cc(OC3CCCC3)c(Cl)cc2F)C1=O [Pentoxazone],Control effect of B applied alone in a corresponding dose (%),"weeds; Eclipta prostrata, B 30 g a.i./ha",40.5%
same,Control effect of B applied alone in a corresponding dose (%),"weeds; Eclipta prostrata, B 60 g a.i./ha",61.4%
C#CCN1C(=O)COc2cc(F)c(N3C(=O)C4=C(CCCC4)C3=O)cc21 [Flumioxazin],Control effect of B applied alone in a corresponding dose (%),"weeds; Commelina communis, B 15 g a.i./ha",35.0%
same,Control effect of B applied alone in a corresponding dose (%),"weeds; Commelina communis, B 30 g a.i./ha",50.6%
CC1(C)CON(Cc2ccc(Cl)cc2Br)C1=O,Control effect of B applied alone in a corresponding dose (%),weeds; [2],43.7%
same,Control effect of B applied alone in a corresponding dose (%),weeds; [3],61.0%
CC(C)c1ccc(NC(=O)N(C)C)cc1 [Isoproturon],Control effect of B applied alone in a corresponding dose (%),"weeds; Lolium temulentum, B 375 g a.i./ha",37.1%
same,Control effect of B applied alone in a corresponding dose (%),"weeds; Lolium temulentum, B 750 g a.i./ha",58.2%
CCN(C(=O)n1nnn(-c2ccccc2Cl)c1=O)C1CCCCC1 [Fentrazamide],Control effect of B applied alone in a corresponding dose (%),"weeds; Eclipta prostrata, B 22.5 g a.i./ha",35.1%
same,Control effect of B applied alone in a corresponding dose (%),"weeds; Eclipta prostrata, B 45 g a.i./ha",48.9%
CCc1ccc(-n2cnc(C(F)(F)C(F)(F)F)n2)nc1Oc1cccc(C(F)(F)F)c1 [Compound 19],Pre-emergence activity level (growth control rate) on Amaranthus retroflexus,[1],9
same,Pre-emergence activity level (growth control rate) on Descurainia sophia,[1],9
same,Pre-emergence activity level (growth control rate) on Digitaria sanguinalis,[1],8 (growth control rate is greater than or equal to 90% and less than 100%)
same,Pre-emergence activity level (growth control rate) on Setaria viridis,[1],8 (growth control rate is greater than or equal to 90% and less than 100%)
same,Pre-emergence activity level (growth control rate) on Solanum nigrum,[1],8 (growth control rate is greater than or equal to 90% and less than 100%)
same,Pre-emergence activity level (growth control rate) on Veronica,[1],9
same,Pre-emergence plant damage level (growth control rate) on Corn,major crops,0
same,Pre-emergence plant damage level (growth control rate) on Cotton,major crops,0
same,Pre-emergence plant damage level (growth control rate) on Soybean,major crops,0
CCCc1ccc(-n2cnc(C(F)(F)F)n2)nc1Oc1cccc(C(F)(F)F)c1 [Compound 21],Pre-emergence activity level (growth control rate) on Amaranthus retroflexus,[1],9
same,Pre-emergence activity level (growth control rate) on Descurainia sophia,[1],9
same,Pre-emergence activity level (growth control rate) on Digitaria sanguinalis,[1],8 (growth control rate is greater than or equal to 90% and less than 100%)
same,Pre-emergence activity level (growth control rate) on Setaria viridis,[1],8 (growth control rate is greater than or equal to 90% and less than 100%)
same,Pre-emergence activity level (growth control rate) on Solanum nigrum,[1],7 (growth control rate is greater than or equal to 80% and less than 90%)
same,Pre-emergence activity level (growth control rate) on Veronica,[1],9
same,Pre-emergence plant damage level (growth control rate) on Corn,major crops,0
same,Pre-emergence plant damage level (growth control rate) on Cotton,major crops,0
same,Pre-emergence plant damage level (growth control rate) on Soybean,major crops,0
CCc1ccc(-n2cnc(C(F)F)n2)nc1Oc1cncc(C(F)(F)F)c1 [Compound 74],Pre-emergence activity level (growth control rate) on Amaranthus retroflexus,[1],9
same,Pre-emergence activity level (growth control rate) on Descurainia sophia,[1],9
same,Pre-emergence activity level (growth control rate) on Digitaria sanguinalis,[1],9
same,Pre-emergence activity level (growth control rate) on Setaria viridis,[1],8 (growth control rate is greater than or equal to 90% and less than 100%)
same,Pre-emergence activity level (growth control rate) on Solanum nigrum,[1],9
same,Pre-emergence activity level (growth control rate) on Veronica,[1],9
same,Pre-emergence plant damage level (growth control rate) on Corn,major crops,0
same,Pre-emergence plant damage level (growth control rate) on Cotton,major crops,0
same,Pre-emergence plant damage level (growth control rate) on Soybean,major crops,0
CCc1ccc(-n2cnc(C(F)F)n2)nc1Oc1cccc(C(F)(F)F)c1 [Compound 72],Pre-emergence activity level (growth control rate) on Amaranthus retroflexus,[1],9
same,Pre-emergence activity level (growth control rate) on Descurainia sophia,[1],9
same,Pre-emergence activity level (growth control rate) on Digitaria sanguinalis,[1],7 (growth control rate is greater than or equal to 80% and less than 90%)
same,Pre-emergence activity level (growth control rate) on Setaria viridis,[1],8 (growth control rate is greater than or equal to 90% and less than 100%)
same,Pre-emergence activity level (growth control rate) on Solanum nigrum,[1],9
same,Pre-emergence activity level (growth control rate) on Veronica,[1],9
same,Pre-emergence plant damage level (growth control rate) on Corn,major crops,0
same,Pre-emergence plant damage level (growth control rate) on Cotton,major crops,0
same,Pre-emergence plant damage level (growth control rate) on Soybean,major crops,0
COCc1ccc(-n2cnc(C(F)(F)C(F)(F)F)n2)nc1Oc1cccc(C(F)(F)F)c1 [Compound 141],Pre-emergence activity level (growth control rate) on Amaranthus retroflexus,[1],8 (growth control rate is greater than or equal to 90% and less than 100%)
same,Pre-emergence activity level (growth control rate) on Descurainia sophia,[1],9
same,Pre-emergence activity level (growth control rate) on Digitaria sanguinalis,[1],9
same,Pre-emergence activity level (growth control rate) on Setaria viridis,[1],8 (growth control rate is greater than or equal to 90% and less than 100%)
same,Pre-emergence activity level (growth control rate) on Solanum nigrum,[1],9
same,Pre-emergence activity level (growth control rate) on Veronica,[1],9
same,Pre-emergence plant damage level (growth control rate) on Corn,major crops,0
same,Pre-emergence plant damage level (growth control rate) on Cotton,major crops,0
same,Pre-emergence plant damage level (growth control rate) on Soybean,major crops,0
CCc1ccc(-n2cnc(C(F)(F)F)n2)nc1Oc1cccc(C(C)(F)F)c1 [Compound 69],Pre-emergence activity level (growth control rate) on Amaranthus retroflexus,[1],9
same,Pre-emergence activity level (growth control rate) on Descurainia sophia,[1],9
same,Pre-emergence activity level (growth control rate) on Digitaria sanguinalis,[1],9
same,Pre-emergence activity level (growth control rate) on Setaria viridis,[1],9
same,Pre-emergence activity level (growth control rate) on Solanum nigrum,[1],9
same,Pre-emergence activity level (growth control rate) on Veronica,[1],9
same,Pre-emergence plant damage level (growth control rate) on Corn,major crops,0
same,Pre-emergence plant damage level (growth control rate) on Cotton,major crops,0
same,Pre-emergence plant damage level (growth control rate) on Soybean,major crops,0
COCc1ccc(-n2cnc(C(F)(F)F)n2)nc1Oc1cccc(Cl)c1 [Compound 139],Pre-emergence activity level (growth control rate) on Amaranthus retroflexus,[1],9
same,Pre-emergence activity level (growth control rate) on Descurainia sophia,[1],9
same,Pre-emergence activity level (growth control rate) on Digitaria sanguinalis,[1],9
same,Pre-emergence activity level (growth control rate) on Setaria viridis,[1],9
same,Pre-emergence activity level (growth control rate) on Solanum nigrum,[1],9
same,Pre-emergence activity level (growth control rate) on Veronica,[1],9
same,Pre-emergence plant damage level (growth control rate) on Corn,major crops,0
same,Pre-emergence plant damage level (growth control rate) on Cotton,major crops,0
same,Pre-emergence plant damage level (growth control rate) on Soybean,major crops,0
